In one data set the test system is Ba/F3 BCR-ABL^WT. As to the kind of experiment: cells. Conditions: Mus musculus, BaF3, 72 h, read-out: IC50 Ba/F3 BCR-ABL^WT. The method, then:
(§1) The CML cell line (BV173, MYL, Ba/F3 BCR-ABL^WT) and the TKI-resistant CML cell line (MYL-R, Ba/F3 BCR-ABL^T315I) in the Table below were seeded in 96-well plates at 3,000-7,000 cells/100 μL/well in a culture solution (10% FBS and RPMI-1640) and cultured under 5% CO2 gas flow at 37° C. for about 3 hours. Then, 100 μL of each compound diluted with the culture solution to 50-0.05 μM MYL, Ba/F3 BCR-ABL^WT, MYL-R, Ba/F3 BCR-ABL^T315I and 500 nM-0.1 nM BV173 was added to the above 96-well plates and cultured for 24 hours, followed by centrifugation (4° C., 1500 rpm, 5 minutes). The supernatant of the culture solution was discarded. 100 μL each of the compounds diluted with the culture solution was added again and cultured further for 24 hours (48 hours totally). The same procedure was repeated. After further culturing for 24 hours (72 hours totally) and reaction using CCK-8 reagent (DOJINDO, CK04) according to its attached instruction, the absorption at 450 nm and 620 nm (blank) of each well was determined with a plate reader (Varioskan Flash, Thermo-Fisher Scientific Co. Ltd.). The values of the wells without sample treatment were taken as 100%, and those of the wells treated with the samples were expressed as relative values. The values of IC50 (μm) were calculated (see Table 3-1). In addition, IC50 ratio of MYL-R cell line to MYL cell line and that of Ba/F3 BCR-ABL^T315I cell line to Ba/F3 BCR-ABL^WT cell line were calculated (see Table 3-2).

The test system of the next data set is BV173. Kind of data set: cells. The method, then: as §1
For another data set, the system named is MYL. As to the kind of experiment: cells. Conditions: 72 h, read-out: IC50 MYL. As to the method:
as §1

The next data set has as its target cytidine deaminase (Homo sapiens, UniProt P32320). Kind of data set: Stability against cytidine deaminase (HPLC). The method, then:
About 1 mg of a silyl etherified derivative of 5-aza-2′-deoxycytidine in carbohydrate moiety (see formula (I)) was dissolved in 1 mL of acetonitrile. 10 μL of the solution was added to 1 mL of PBS. 10 μl of a PBS solution of cytidine deaminase was added to the obtained solution and stirred at 37° C. for about 1 hour. 1 mL of acetonitrile was added to the reaction solution and centrifuged. The supernatant was analyzed with HPLC.
Cytidine deaminase: CDA (1-146aa), Human, His-tagged, Recombinant cytidine deaminase (ATGen) • HPLC conditions: • Column: CAPCELL PAK ADME (4.6 mm×150 mm, particle size: 3 μm) • Elution: eluate A=Purified water containing 10 mM ammonium formate • Eluate B=Acetonitrile • Gradient mode: A:B=99:1→5:95/30 minutes • Flow rate: 1.0 mL/min • Oven temperature: 40° C. • Detection: UV240 nm

Data set [1] in a line: Non-enzymatic hydrolysis in PBS solution at 37° C. (HPLC). The data set is classed as physicochemical. The method, then:
A silyl etherified derivative of 5-aza-2′-deoxycytidine in carbohydrate moiety (see formula (I)), for example, 5′-O-(triethylsilyl)-5-aza-2′-deoxycytidine (Compound F) (about 1 mg) was dissolved in 1 mL of acetonitrile. 5 μL of the solution was added to 100 μL of a PBS solution (10 mM), and stirred at 37° C. The reactant was analyzed over the time with HPLC.
HPLC conditions were same as those in test example 1.

In the next data set the test system is Ba/F3 BCR-ABL^T315I. Kind of data set: cells. The method, then:
as §1
(§2) MYL-R cell line is an MYL cell line in which Lyn is overexpressed, and Ba/F3 BCR-ABL^T315I cell line is the one in which ABLT315I mutation is introduced into Ba/F3 BCR-ABL^WT cell line. They both have acquired resistance to TKI.

The next data set has as its system MYL-R. Kind of data set: cells. The method, then: as §1, §2
The subject of data set [2] is CpG island of LINE-1 in BV173 cell line. As to the kind of experiment: DNA demethylation effect: CpG methylation ratio of LINE-1 by pyrosequencing. The data set is classed as cell-based. Conditions: BV173, 72 hours. The method, then:
The methylation ratio of cytosine moiety of CpG island of LINE-1 (long interspersed nucleotide factor −1) was determined by using a method of pyrosequencing.
Solutions of silyl etherified derivatives of 5-aza-2′-deoxycytidine in carbohydrate moiety (for example, Compound F: 5′-O-(triethylsilyl)-5-aza-2′-deoxycytidine) at concentrations of 0.1 nM, 1.0 nM, 5.0 nM, 10.0 nM, and 50.0 nM were added, respectively to a solution containing BV173 cell line (about 50,000 cells/mL), and cultured in a RPMI-1640 medium (containing 10% FBS and Penn-strep) for 72 hours. Then, DNA was extracted from the cells and treated with hydrogensulfite. CpG methylation ratio of LINE-1 was determined (see Table 4).

Consider 2 molecules from patent publication US12472196B2, “Use of DNMT inhibitor” (priority 2019, dated 2025).

Where two headings read alike, the source gives them in different places.

Chain of cytidine deaminase (P32320 whole entry): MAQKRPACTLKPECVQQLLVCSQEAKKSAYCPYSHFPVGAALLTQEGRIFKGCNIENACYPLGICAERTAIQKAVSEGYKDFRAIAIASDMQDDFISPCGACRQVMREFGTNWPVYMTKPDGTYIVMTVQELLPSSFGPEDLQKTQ

As for `CC[Si](CC)(CC)OC[C@H]1O[C@@H](n2cnc(N)nc2=O)C[C@@H]1O` [Compound F, 5′-O-(Triethylsilyl)-5-aza-2′-deoxycytidine], the IC50 with Ba/F3 BCR-ABL^WT was found to be 580 nM; with BV173 (Homo sapiens, BV-173, 72 h, read-out: IC50 BV173), 5 nM; in the data set with MYL it was 280 nM; in the data set with Ba/F3 BCR-ABL^T315I (Mus musculus, BaF3, 72 h, read-out: IC50 Ba/F3 BCR-ABL^T315I) it was 780 nM; in the data set with MYL-R (72 h, read-out: IC50 MYL-R), 790 nM. In the data set on BV173 (CML cell lines of Table 3-1 (BV173, MYL, Ba/F3 BCR-ABL^WT)), the “anti-CML activity (in words)” value is listed as “very high anti-CML activity”. In addition, the “Change in HPLC pattern” value at cytidine deaminase (PBS with recombinant human cytidine deaminase, 37° C., about 1 hour) is on record as “Almost no change in the peak for”. Moreover, the “5-Aza-2′-deoxycytidine (%) After 4 hours” value in data set [1] (10 mM PBS, 4 hours, desilyl form produced) turned out to be 10%. The “5-Aza-2′-deoxycytidine (%) After 8 hours” value in data set [1] (10 mM PBS, 8 hours, desilyl form produced) is 12%. Moreover, the “5-Aza-2′-deoxycytidine (%) After 24 hours” value in data set [1] (10 mM PBS, 24 hours, desilyl form produced) came out at 48%. In data set [1] (PBS), the “non-enzymatic hydrolysis in PBS solution (in words)” value is “the corresponding desilyl form (5-aza-2′-deoxycytizine: R^1 and R^2 are hydrogen atoms in formula (I)) was produced almost without other decomposition products”. Moreover, in the data set on Ba/F3 BCR-ABL^T315I (ratio of IC50 in Ba/F3 BCR-ABL^T315I to Ba/F3 BCR-ABL^WT), the “IC50 ratio Ba/F3 BCR-ABL^T315I/BCR-ABL^WT” value amounted to 1.4. The “anti-CML activity against MYL-R strain compared with reference nucleosides (in words)” value with MYL-R (MYL-R) is “considerably higher than that in the case of 5-aza cytidine”. Also, in the data set on MYL-R (TKI-resistant CML cell lines of Table 3-1 (MYL-R, Ba/F3 BCR-ABL^T315I)), the “anti-TKI-resistant CML activity (in words)” value was “anti-TKI-resistant CML activity”. In addition, the “IC50 ratio MYL-R/MYL” value in the data set with MYL-R (ratio of IC50 in MYL-R to MYL) is listed as 2.8. The Methylation ratio in data set [2] (0.1 nM) is 89.3%; in data set [2] (1.0 nM), 89.7%; in data set [2] (5.0 nM) it was 88.0%; in data set [2] (10.0 nM) it was 82.3%; in data set [2] (50.0 nM), 60.0%.

As for `Nc1ncn([C@H]2C[C@H](O)[C@@H](CO)O2)c(=O)n1` [5-Aza-2′-deoxycytidine], on cytidine deaminase, the “Change in HPLC pattern” value is reported as “The peak for starting material disappeared” and the “stability to cytidine deaminase (in words)” value is “disappeared completely”. Also, the “time within which decomposed in the presence of cytidine deaminase” value at cytidine deaminase (under the condition used) was not above 30 min.
